Experimental data: PubChem BioAssay AID192 (DTP/NCI, 2004)
“And” between values parts separate entries of the source, which are not always exact repeats. Equal entries are not always repeated. Inconclusive results and toxic doses are left out. The calls were made as follows: active = survival T/C of 150% or more; inactive = T/C below 125% in these data.

System: BDF1 mice, B16 melanoma ip, median survival T/C
Experiment: NCI In Vivo Anticancer Drug Screen. Data for tumor model B16 Melanoma (intraperitoneal) in B6D2F1 (BDF1) mice
Conditions: endpoint: median survival time, higher = longer survival
How it was run: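 Each result divides a survival or tumor-size measurement in the compound-treated group by the same measurement in the vehicle group.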

[1] = dose: 12.5 mg/kg/injection, schedule: Q01DX009 (ip), vehicle: saline with Tween-80
[2] = dose: 25.0 mg/kg/injection, schedule: Q01DX009 (ip), vehicle: saline with Tween-80
[3] = dose: 50.0 mg/kg/injection, schedule: Q01DX009 (ip), vehicle: saline with Tween-80
[4] = dose: 100.0 mg/kg/injection, schedule: Q01DX009 (ip), vehicle: saline with Tween-80
[5] = dose: 6.25 mg/kg/injection, schedule: Q01DX009 (ip), vehicle: saline with Tween-80
[6] = dose: 3.12 mg/kg/injection, schedule: Q01DX009 (ip), vehicle: saline
[7] = dose: 6.25 mg/kg/injection, schedule: Q01DX009 (ip), vehicle: saline
[8] = dose: 12.5 mg/kg/injection, schedule: Q01DX009 (ip), vehicle: saline
[9] = dose: 10.0 mg/kg/injection, schedule: Q01DX009 (ip), vehicle: Klucel (hydroxypropylcellulose) (HPC)
[10] = dose: 12.5 mg/kg/injection, schedule: Q01DX009 (ip), vehicle: Klucel (hydroxypropylcellulose) (HPC)
[11] = dose: 25.0 mg/kg/injection, schedule: Q01DX009 (ip), vehicle: saline
[12] = dose: 200.0 mg/kg/injection, schedule: Q01DX009 (ip), vehicle: saline with Tween-80
[13] = dose: 0.75 mg/kg/injection, schedule: Q01DX009 (ip), vehicle: saline
[14] = dose: 1.5 mg/kg/injection, schedule: Q01DX009 (ip), vehicle: saline
[15] = dose: 3.0 mg/kg/injection, schedule: Q01DX009 (ip), vehicle: saline
[16] = dose: 50.0 mg/kg/injection, schedule: Q01DX009 (ip), vehicle: saline
[17] = dose: 100.0 mg/kg/injection, schedule: Q04DX003 (ip), vehicle: saline with Tween-80
[18] = dose: 200.0 mg/kg/injection, schedule: Q04DX003 (ip), vehicle: saline with Tween-80
[19] = dose: 100.0 mg/kg/injection, schedule: Q01DX009 (ip), vehicle: saline
[20] = dose: 200.0 mg/kg/injection, schedule: Q01DX009 (ip), vehicle: saline

Measured: T/C

COc1c(Cl)cc2c(c1OC)N(C)C1N3C(=O)C4(C)SSC3(C(=O)N4C)C(O)C21O (stereo unspecified)
inactive: dose: 0.12 mg/kg/injection, schedule: Q01DX009 (ip), vehicle: Klucel (hydroxypropylcellulose) (HPC) 103 % of control | dose: 0.25 mg/kg/injection, schedule: Q01DX009 (ip), vehicle: Klucel (hydroxypropylcellulose) (HPC) 106 % of control

CC(=Nc1ccccc1)C1=C(O)C(Cc2ccccc2)NC1=O (stereo unspecified)
inactive: [1] 100 % of control | [2] 102 % of control | [3] 106 % of control | [4] 98 % of control and 100 % of control

CCCC1CC[N-]CC1.CCCC1CC[N-]CC1.[Cl][Pt+2][Cl]
inactive: [5] 100 % of control | [1] 110 % of control | [2] 104 % of control

OCCN1CCN(CCCN2c3ccccc3Oc3ccc(C(F)(F)F)cc32)CC1
inactive: dose: 0.78 mg/kg/injection, schedule: Q01DX009 (ip), vehicle: saline 105 % of control | dose: 1.56 mg/kg/injection, schedule: Q01DX009 (ip), vehicle: saline 100 % of control | [6] 107 % of control | [7] 102 % of control | [8] 87 % of control

CNC(c1ccncc1)C(NC)c1ccncc1 (stereo unspecified)
inactive: dose: 100.0 mg/kg/injection, schedule: Q04DX003 (ip), vehicle: Klucel (hydroxypropylcellulose) (HPC) 95 % of control | dose: 400.0 mg/kg/injection, schedule: Q04DX003 (ip), vehicle: Klucel (hydroxypropylcellulose) (HPC) 91 % of control

CC(=O)[O][Hg][c]1c(C)c(C)c(C)c(C)c1C
inactive: dose: 2.5 mg/kg/injection, schedule: Q01DX009 (ip), vehicle: Klucel (hydroxypropylcellulose) (HPC) 99 % of control | dose: 5.0 mg/kg/injection, schedule: Q01DX009 (ip), vehicle: Klucel (hydroxypropylcellulose) (HPC) 98 % of control | [9] 90 % of control | [10] 90 % of control

Cc1ccc(S(=O)(=O)N=N/C=C2/C=CC=CN2O)cc1
inactive: dose: 25.0 mg/kg/injection, schedule: Q01DX009 (ip), vehicle: Klucel (hydroxypropylcellulose) (HPC) 108 % of control | dose: 50.0 mg/kg/injection, schedule: Q01DX009 (ip), vehicle: Klucel (hydroxypropylcellulose) (HPC) 114 % of control | dose: 100.0 mg/kg/injection, schedule: Q01DX009 (ip), vehicle: Klucel (hydroxypropylcellulose) (HPC) 115 % of control

CCN(CC)CCCC(C)NC/C=C/CNC(C)CCCN(CC)CC (stereo unspecified)
inactive: [7] 105 % of control | [8] 103 % of control | [11] 102 % of control

CC(C)=CC(=O)CC(O)(C(F)(F)F)C(F)(F)Cl (stereo unspecified)
inactive: [5] 97 % of control | dose: 6.25 mg/kg/injection, schedule: Q04DX003 (ip), vehicle: saline 100 % of control | [1] 90 % of control | dose: 12.5 mg/kg/injection, schedule: Q04DX003 (ip), vehicle: saline 89 % of control | [2] 92 % of control | dose: 25.0 mg/kg/injection, schedule: Q04DX003 (ip), vehicle: saline 89 % of control

Cc1cccc2cc3c(ccc4ccccc43)c[n+]12
inactive: dose: 1.0 mg/kg/injection, schedule: Q01DX009 (ip), vehicle: saline sonified 105 % of control | dose: 2.0 mg/kg/injection, schedule: Q01DX009 (ip), vehicle: saline sonified 107 % of control | dose: 4.0 mg/kg/injection, schedule: Q01DX009 (ip), vehicle: saline sonified 102 % of control

Cc1cccc(C2CCCC2c2ccccc2)c1 (stereo unspecified)
inactive: dose: 75.0 mg/kg/injection, schedule: Q01DX009 (ip), vehicle: Klucel (hydroxypropylcellulose) (HPC) 88 % of control | dose: 150.0 mg/kg/injection, schedule: Q01DX009 (ip), vehicle: Klucel (hydroxypropylcellulose) (HPC) 97 % of control | dose: 300.0 mg/kg/injection, schedule: Q01DX009 (ip), vehicle: Klucel (hydroxypropylcellulose) (HPC) 100 % of control

CC(C)(C)OC(=O)n1cnc(CC(NC(=O)OCc2ccccc2)C(=O)O)c1 (stereo unspecified)
inactive: [3] 98 % of control | [4] 89 % of control | [12] 92 % of control

CC[C@@H]1C[C@H]2CC3c4[nH]c5ccccc5c4CCN(C2)C31
inactive: dose: 5.0 mg/kg/injection, schedule: Q01DX009 (ip), vehicle: saline with Tween-80 110 % of control | dose: 10.0 mg/kg/injection, schedule: Q01DX009 (ip), vehicle: saline with Tween-80 107 % of control | dose: 20.0 mg/kg/injection, schedule: Q01DX009 (ip), vehicle: saline with Tween-80 97 % of control

OC[CH2][Hg][Br]
inactive: dose: 0.37 mg/kg/injection, schedule: Q01DX009 (ip), vehicle: saline 97 % of control | [13] 94 % of control | [14] 94 % of control | [15] 93 % of control

CC(=O)O[C@@H]1CO[C@H]2O[C@H]3[C@@H](C(C=O)=C[C@H](O)[C@@H]4C5=C(C(C)C)CC[C@]5(C)CC[C@@]34C)[C@@]2(O)C1=O
inactive: dose: 0.75 mg/kg/injection, schedule: Q01DX009 (ip), vehicle: Klucel (hydroxypropylcellulose) (HPC) 94 % of control | dose: 3.12 mg/kg/injection, schedule: Q01DX009 (ip), vehicle: Klucel (hydroxypropylcellulose) (HPC) 100 % of control | dose: 6.25 mg/kg/injection, schedule: Q01DX009 (ip), vehicle: Klucel (hydroxypropylcellulose) (HPC) 89 % of control | [10] 86 % of control

CC[P+](CC)(CC)CCCCI
inactive: [16] 93 % of control

CC(C)(C)OC(=O)CCC(NC(=O)OCc1ccccc1)C(=O)NN (stereo unspecified)
inactive: dose: 75.0 mg/kg/injection, schedule: Q04DX003 (ip), vehicle: Klucel (hydroxypropylcellulose) (HPC) 97 % of control | dose: 150.0 mg/kg/injection, schedule: Q04DX003 (ip), vehicle: Klucel (hydroxypropylcellulose) (HPC) 100 % of control | dose: 300.0 mg/kg/injection, schedule: Q04DX003 (ip), vehicle: Klucel (hydroxypropylcellulose) (HPC) 97 % of control

O=C(Nc1ccc2ccccc2c1)c1ccc(Cl)cc1Cl
inactive: [17] 88 % of control | [18] 91 % of control | dose: 400.0 mg/kg/injection, schedule: Q04DX003 (ip), vehicle: saline with Tween-80 94 % of control

CN1CCN(C(c2ccccc2)c2ccc(Cl)cc2)CC1 (stereo unspecified)
inactive: [6] 105 % of control | [7] 105 % of control | [8] 102 % of control | [11] 102 % of control | [16] 100 % of control

CC#CC#C/C=C1\OC2(CCCCO2)C(O)C1OC(=O)CC(C)C (stereo unspecified)
inactive: [9] 103 % of control | dose: 20.0 mg/kg/injection, schedule: Q01DX009 (ip), vehicle: Klucel (hydroxypropylcellulose) (HPC) 103 % of control | dose: 40.0 mg/kg/injection, schedule: Q01DX009 (ip), vehicle: Klucel (hydroxypropylcellulose) (HPC) 94 % of control

NC(=O)c1ccc[n+](Cc2c(Cl)cccc2Cl)c1
inactive: [13] 99 % of control | [14] 96 % of control and 102 % of control | [15] 102 % of control and 111 % of control | dose: 6.0 mg/kg/injection, schedule: Q01DX009 (ip), vehicle: saline 98 % of control | dose: 12.0 mg/kg/injection, schedule: Q01DX009 (ip), vehicle: saline 98 % of control and 99 % of control | dose: 24.0 mg/kg/injection, schedule: Q01DX009 (ip), vehicle: saline 105 % of control

CC(=O)CC(C)=O.CC(=O)CC(C)=O.CC(=O)CC(C)=O.[V]
inactive: dose: 3.13 mg/kg/injection, schedule: Q01DX009 (ip), vehicle: saline 88 % of control | [7] 89 % of control

C[C@]12CC[C@H]3[C@@H](CC[C@]4(O)C[C@@H](O)CC[C@]34C=O)[C@@]1(O)CC[C@@H]2C1=CC(=O)OC1
inactive: [1] 104 % of control | [2] 92 % of control | [3] 97 % of control | [4] 97 % of control | [12] 90 % of control

CC(=O)NSCC(NC(=O)OC(C)(C)C)C(=O)O (stereo unspecified)
inactive: [16] 100 % of control | [19] 101 % of control | [20] 96 % of control

NC(Cc1cc(Cl)c(O)c(Cl)c1)C(=O)O (stereo unspecified)
inactive: [19] 94 % of control | dose: 150.0 mg/kg/injection, schedule: Q01DX009 (ip), vehicle: saline 100 % of control | [20] 98 % of control

CCCCC(CC)COP(OCC(CC)CCCC)OCC(CC)CCCC (stereo unspecified)
inactive: [17] 93 % of control | [18] 86 % of control

C=CCc1cc2c(C)cc(=O)oc2c(C)c1OC(C)=O
inactive: dose: 100.0 mg/kg/injection, schedule: Q04DX003 (ip), vehicle: gum acacia 95 % of control | dose: 200.0 mg/kg/injection, schedule: Q04DX003 (ip), vehicle: gum acacia 86 % of control | dose: 400.0 mg/kg/injection, schedule: Q04DX003 (ip), vehicle: gum acacia 86 % of control
